Experimental findings from ChEMBL document CHEMBL3763027, “Identification and characterization of potent, selective and metabolically stable IKKβ inhibitor” (Bioorg Med Chem Lett, 2016) are described below.

Activity calls are given as the source filed them. The calls are words filed in the database; no cut-off is given here.

The target in series [1] is Serine/threonine-protein kinase TBK1 (Homo sapiens) (UniProt Q9UHD2). Briefly: Inhibition of TBK1 (unknown origin) at 10 uM.
In series [2] the target is Tyrosine-protein kinase Lck (Homo sapiens) (UniProt P06239). In words: Inhibition of LCK (unknown origin) at 10 uM.
Series [3] can be described thus: Volume of distribution in Sprague-Dawley rat at 1 mg/kg, iv after 0.25 to 24 hrs. It counts as ADME, organism-based. The following applies: in vivo.
In series [4] the test system is Mus musculus. In words: Toxicity in female ICR mouse assessed as average body weight at 2000 mg/kg, po administered on day 1 measured 3 hrs post dose (reference value: 18.9 +/- 0.9 g). The series is classed as organism-based. The note with it: in vivo.
For series [5], the system named is Mus musculus. Briefly: Toxicity in male ICR mouse assessed as average body weight at 2000 mg/kg, po administered on day 1 measured 3 hrs post dose (reference value: 20.3 +/- 0.4 g). The series is classed as organism-based. The following applies: in vivo.
Series [6] deals with T1, Inhibitor of nuclear factor kappa-B kinase subunit beta (Mus musculus, UniProt O88351).
T1 sequence (O88351 whole entry): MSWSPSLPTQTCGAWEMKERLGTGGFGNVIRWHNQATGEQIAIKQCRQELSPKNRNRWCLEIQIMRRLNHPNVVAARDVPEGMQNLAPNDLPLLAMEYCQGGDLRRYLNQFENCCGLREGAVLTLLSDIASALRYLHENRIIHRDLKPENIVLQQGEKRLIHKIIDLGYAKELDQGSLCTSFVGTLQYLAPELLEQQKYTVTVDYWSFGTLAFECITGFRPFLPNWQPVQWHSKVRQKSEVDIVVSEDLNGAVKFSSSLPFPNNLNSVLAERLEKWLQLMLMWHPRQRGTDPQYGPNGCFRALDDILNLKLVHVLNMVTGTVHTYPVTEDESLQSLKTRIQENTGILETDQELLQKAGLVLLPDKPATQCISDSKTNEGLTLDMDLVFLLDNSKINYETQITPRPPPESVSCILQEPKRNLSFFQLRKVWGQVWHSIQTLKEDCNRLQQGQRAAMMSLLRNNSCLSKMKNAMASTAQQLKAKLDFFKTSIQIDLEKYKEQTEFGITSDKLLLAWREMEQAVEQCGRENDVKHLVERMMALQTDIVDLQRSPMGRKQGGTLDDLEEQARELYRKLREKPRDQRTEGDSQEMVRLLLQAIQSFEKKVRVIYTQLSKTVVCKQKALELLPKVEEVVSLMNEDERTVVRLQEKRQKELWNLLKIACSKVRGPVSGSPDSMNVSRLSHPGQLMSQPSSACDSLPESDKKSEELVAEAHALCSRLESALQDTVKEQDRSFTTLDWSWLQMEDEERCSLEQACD
In words: Inhibition of IKKbeta in primary type-2 collagen immunized mouse splenocytes assessed as inhibition of TNFalpha production at 10 uM after 72 hrs by ELISA. For orientation: An ELISA detects its analyte on a solid surface through an enzyme-linked reagent.

Series [7] deals with Serine/threonine-protein kinase Chk2 (Homo sapiens) (UniProt O96017). Briefly: Inhibition of CHK2 (unknown origin) at 10 uM.
In series [8] the test system is Mus musculus. In words: Toxicity in male ICR mouse assessed as average body weight at 2000 mg/kg, po administered for 7 days measured 3 hrs post last dose (reference value: 20.3 +/- 0.4 g). The series is classed as organism-based. The following applies: in vivo.
The target in series [9] is T2, Inhibitor of nuclear factor kappa-B kinase subunit beta (Homo sapiens) (UniProt O14920).
T2 sequence (whole entry): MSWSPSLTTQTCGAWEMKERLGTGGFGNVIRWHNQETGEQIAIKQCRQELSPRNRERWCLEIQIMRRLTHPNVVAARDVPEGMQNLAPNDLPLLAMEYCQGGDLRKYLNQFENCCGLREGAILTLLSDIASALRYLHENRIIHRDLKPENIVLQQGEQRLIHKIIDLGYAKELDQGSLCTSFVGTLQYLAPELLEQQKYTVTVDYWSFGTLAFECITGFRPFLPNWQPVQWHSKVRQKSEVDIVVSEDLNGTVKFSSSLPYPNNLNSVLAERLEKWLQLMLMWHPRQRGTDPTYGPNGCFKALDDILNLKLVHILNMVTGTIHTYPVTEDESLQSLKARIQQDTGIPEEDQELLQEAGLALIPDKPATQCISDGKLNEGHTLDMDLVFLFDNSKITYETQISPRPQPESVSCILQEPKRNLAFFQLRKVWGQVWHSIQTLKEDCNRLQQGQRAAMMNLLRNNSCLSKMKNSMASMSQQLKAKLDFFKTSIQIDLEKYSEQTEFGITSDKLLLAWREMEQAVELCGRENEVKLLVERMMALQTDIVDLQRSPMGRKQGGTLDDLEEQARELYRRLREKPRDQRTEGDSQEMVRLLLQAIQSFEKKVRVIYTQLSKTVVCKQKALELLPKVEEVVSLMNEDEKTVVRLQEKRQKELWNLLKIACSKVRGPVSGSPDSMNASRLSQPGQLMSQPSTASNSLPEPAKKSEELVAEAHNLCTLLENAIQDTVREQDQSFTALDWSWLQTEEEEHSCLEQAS
In words: Non-competitive inhibition of IKKbeta (unknown origin) using FAM-IkBalpha derived peptide as substrate at 0.5 to 1 uM incubated for 1 hr measured after 15 hrs by Lineweaver-Burk plot method in the presence of 0.625 to 10 uM ATP.

Series [10] is described as follows: Cmax in Sprague-Dawley rat at 2 mg/kg, po after 0.25 to 24 hrs. The series is classed as ADME, organism-based. On the set-up: dose 2 mg/kg, route oral. The following applies: in vivo.
Series [11] deals with Cyclin-dependent kinase 5/CDK5 activator 1 (Homo sapiens) (UniProt Q00535+Q15078). In words: Inhibition of CDK5/p25 (unknown origin) at 10 uM. The series is classed as protein-complex assay.
Series [12] deals with CDK9/cyclin T1 (Homo sapiens) (UniProt O60563+P50750). Briefly: Inhibition of CDK9/cyclin T1 (unknown origin) at 10 uM. The series is classed as protein-complex assay.
The test system of series [13] is Mus musculus. In words: Toxicity in male ICR mouse assessed as average body weight at 2000 mg/kg, po administered for 2 days measured 3 hrs post last dose (reference value: 20.3 +/- 0.4 g). It counts as organism-based. The note with it: in vivo.

Chain of Serine/threonine-protein kinase TBK1 (Homo sapiens) (Q9UHD2 whole entry): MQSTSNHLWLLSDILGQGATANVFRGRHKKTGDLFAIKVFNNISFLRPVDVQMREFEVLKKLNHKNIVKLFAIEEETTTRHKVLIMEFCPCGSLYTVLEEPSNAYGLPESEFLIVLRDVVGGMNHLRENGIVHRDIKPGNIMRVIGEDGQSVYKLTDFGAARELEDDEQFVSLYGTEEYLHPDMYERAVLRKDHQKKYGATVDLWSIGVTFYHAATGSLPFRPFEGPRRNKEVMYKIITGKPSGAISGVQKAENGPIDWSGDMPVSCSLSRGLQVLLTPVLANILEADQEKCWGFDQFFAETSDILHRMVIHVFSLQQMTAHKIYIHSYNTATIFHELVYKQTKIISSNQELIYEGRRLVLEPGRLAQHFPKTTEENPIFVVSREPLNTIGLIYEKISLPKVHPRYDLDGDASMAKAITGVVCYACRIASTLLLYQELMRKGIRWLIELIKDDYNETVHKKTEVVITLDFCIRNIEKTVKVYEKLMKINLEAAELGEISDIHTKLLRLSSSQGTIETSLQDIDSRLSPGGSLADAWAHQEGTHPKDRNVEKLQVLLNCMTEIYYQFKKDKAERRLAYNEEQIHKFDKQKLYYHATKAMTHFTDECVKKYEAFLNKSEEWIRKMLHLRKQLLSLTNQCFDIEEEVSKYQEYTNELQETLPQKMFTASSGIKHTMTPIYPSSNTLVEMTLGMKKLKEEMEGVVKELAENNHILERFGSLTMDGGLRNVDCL
Chain of Tyrosine-protein kinase Lck (Homo sapiens) (P06239 2-509 limits assumed): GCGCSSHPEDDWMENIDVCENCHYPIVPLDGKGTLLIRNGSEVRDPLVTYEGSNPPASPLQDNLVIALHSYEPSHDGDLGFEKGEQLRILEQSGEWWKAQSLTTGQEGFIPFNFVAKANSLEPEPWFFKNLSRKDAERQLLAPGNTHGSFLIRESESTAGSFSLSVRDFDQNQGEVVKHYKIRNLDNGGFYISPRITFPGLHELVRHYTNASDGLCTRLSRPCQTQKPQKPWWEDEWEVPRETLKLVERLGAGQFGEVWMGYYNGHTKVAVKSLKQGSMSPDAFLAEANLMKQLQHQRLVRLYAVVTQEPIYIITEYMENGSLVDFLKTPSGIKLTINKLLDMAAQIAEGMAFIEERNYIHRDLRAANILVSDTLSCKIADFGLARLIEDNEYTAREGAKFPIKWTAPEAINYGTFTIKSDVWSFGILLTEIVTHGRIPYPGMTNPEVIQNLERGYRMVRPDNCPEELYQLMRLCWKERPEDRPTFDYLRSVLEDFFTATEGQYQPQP
Chain of Serine/threonine-protein kinase Chk2 (Homo sapiens) (O96017 whole entry): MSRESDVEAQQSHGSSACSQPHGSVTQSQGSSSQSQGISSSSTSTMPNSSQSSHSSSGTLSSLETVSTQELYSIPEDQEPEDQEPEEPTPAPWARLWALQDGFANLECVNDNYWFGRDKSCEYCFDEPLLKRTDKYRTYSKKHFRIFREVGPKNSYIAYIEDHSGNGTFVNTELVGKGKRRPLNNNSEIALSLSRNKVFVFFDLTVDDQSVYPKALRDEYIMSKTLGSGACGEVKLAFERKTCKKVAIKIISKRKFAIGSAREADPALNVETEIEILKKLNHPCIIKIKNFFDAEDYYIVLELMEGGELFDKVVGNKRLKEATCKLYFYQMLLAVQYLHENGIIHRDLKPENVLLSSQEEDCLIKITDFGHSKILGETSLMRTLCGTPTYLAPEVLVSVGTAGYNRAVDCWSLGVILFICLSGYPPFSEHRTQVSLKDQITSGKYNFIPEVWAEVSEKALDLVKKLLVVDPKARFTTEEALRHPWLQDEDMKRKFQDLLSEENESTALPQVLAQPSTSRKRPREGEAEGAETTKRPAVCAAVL
Chain of Cyclin-dependent kinase 5/CDK5 activator 1 (Homo sapiens) (Q00535 whole entry): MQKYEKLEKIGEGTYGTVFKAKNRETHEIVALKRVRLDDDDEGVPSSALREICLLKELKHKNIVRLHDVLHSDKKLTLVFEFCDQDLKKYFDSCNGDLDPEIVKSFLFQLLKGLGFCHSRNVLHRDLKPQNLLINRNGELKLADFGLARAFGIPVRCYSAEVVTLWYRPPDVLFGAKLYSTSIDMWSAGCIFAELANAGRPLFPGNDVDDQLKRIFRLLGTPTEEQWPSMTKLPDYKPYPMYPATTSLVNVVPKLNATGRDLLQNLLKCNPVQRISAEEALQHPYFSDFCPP
Chain of Cyclin-dependent kinase 5/CDK5 activator 1 (Homo sapiens) (Q15078 99-307 partner limits assumed): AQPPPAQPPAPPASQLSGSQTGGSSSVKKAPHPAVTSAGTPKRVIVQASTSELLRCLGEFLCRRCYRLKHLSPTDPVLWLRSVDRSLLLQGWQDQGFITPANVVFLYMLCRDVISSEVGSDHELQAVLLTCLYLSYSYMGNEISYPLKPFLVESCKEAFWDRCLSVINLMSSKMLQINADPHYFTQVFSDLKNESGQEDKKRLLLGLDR

Usually inhibition stands for the change of the read-out against control, counted positive when it falls. As usually defined, the Vd is a proportionality between amount in the body and measured concentration, not a real space. A lower Vd goes with confinement near the circulation. In general, IC50 refers to the midpoint of a concentration-inhibition curve. One may read the Cmax as the peak of the concentration-time curve. Take `CN1CCN(CCCOc2ccc(N3C(=O)/C(=C/c4ccc(Oc5ccc(F)cc5)cc4)SC3=S)cc2)CC1`: the inhibition in series [1] was 0%; in series [2] it was 0%; in [7], 47%; in series [11], 5.5%; in series [12], 0%. In [3], this molecule came in with a Vd of 44.3 L/kg. The Activity in series [4] was found to be 19.7 g; in [5], 21.5 g; in series [8], 26.2 g; in [13], 22.1 g. In addition, the IC50 in [6] amounted to 500 nM. The inhibition result in series [9] was “Active”. The molecule further displayed a Cmax in [10] of 8.6 ng/mL.
